Laboratory results: US11286258B2, “Nature-inspired anticancer and antibacterial motifs and pharmaceutical composition thereof” (University of Sharjah, priority 2020, dated 2022)
Values after ≈ are worked out from the molar mass of the structure shown. Values belong to the molecule of their own block, whether it stands above or below them.

Columns and labels:
[1] = system: MRSA-ATCC700699 (VISA); test: MIC broth microdilution, MRSA ATCC700699 (VISA); assay type: cell-based, Staphylococcus aureus; settings: Staphylococcus aureus; strain intermediately resistant to vancomycin; overnight incubation; read-out: MIC MRSA-ATCC700699 (VISA)
Method: (§1) Antibacterial activity: The compounds were tested for the minimum inhibitory concentrations (MIC), which is the lowest concentration of a chemical required to inhibit visible microbial growth following overnight incubation. MIC values were determined using broth microdilution method according to the Clinical and Laboratory Standards Institute guidelines (CLSI, 2015, M07-A10). Mueller-Hinton broth was used as a culture medium in all the experiments. Exponentially growing bacterial cells were prepared in Mueller-Hinton broth at a concentration of approximately 5×10^5 CFU/mL. Two-fold serial dilutions of the test compound (8 concentrations ranged between 100-0.78 μg/mL) were tested. […] In each experiment, solvent (DMSO) was used as a negative control, un-treated control (composing of bacteria in Mueller-Hinton broth) was used as a growth control, blank (culture media alone) was used as sterility control. The 96-well microplate with the test compounds was incubated overnight at 37° C. Turbidity in wells indicated bacterial growth.
(§2) The compounds were tested on six MDR Gram-positive bacteria including three clinical isolates of methicillin-resistant Staphylococcus aureus (MRSA-1, MRSA-2 and MRSA-3) and three reference MRSA strains (ATCC33591, ATCC33592 and ATCC700699). They were also tested on three MDR Gram-negative bacteria including New Delhi metallo-beta-lactamase (NDM-1) positive, carbapenem-resistant E. coli (ATCC BAA2469), extended-spectrum beta-lactamase (ESBL) producing, colistin-resistant E. coli (CDC-AR-0346) and carbapenem-resistant Acinetobacter baumannii (ATCC BAA1605), in addition to two non-MDR bacteria from the same species, namely E. coli (ATCC 25922) Acinetobacter baumannii (ATCC 19606).

[2] = system: MRSA-ATCC33592; test: MIC broth microdilution, MRSA ATCC33592; assay type: cell-based, Staphylococcus aureus; settings: Staphylococcus aureus; overnight incubation, Mueller-Hinton broth; read-out: MIC MRSA-ATCC33592
Method: as §1, §2

[3] = system: Acinetobacter baumannii ATCC 19606; test: MIC broth microdilution, A. baumannii ATCC 19606; assay type: cell-based; settings: Acinetobacter baumannii, ATCC19606; not MDR; overnight incubation
Method: as §1, §2

[4] = system: 6 MRSA strains; test: MIC, panel of 6 MRSA strains; assay type: cell-based; settings: Staphylococcus aureus, across the panel of tested Gram-positive strains, read-out: MIC against all the 6 MRSA strains
Method: as §1, §2

[5] = system: MRSA-ATCC33591; test: MIC broth microdilution, MRSA ATCC33591; assay type: cell-based, Staphylococcus aureus; settings: Staphylococcus aureus; overnight incubation, Mueller-Hinton broth; read-out: MIC MRSA-ATCC33591
Method: as §1, §2

[6] = system: MDR E. coli strains; test: MIC, both MDR E. coli strains; assay type: cell-based; settings: Escherichia coli, ATCCBAA2469; across ATCC BAA2469 and CDC-AR-0346
Method: as §1
The compounds were tested on six MDR Gram-positive bacteria including three clinical isolates of methicillin-resistant Staphylococcus aureus (MRSA-1, MRSA-2 and MRSA-3) and three reference MRSA strains (ATCC33591, ATCC33592 and ATCC700699). […]

[7] = system: E. coli ATCC BAA2469 (NDM-1 carbapenem-resistant); test: MIC broth microdilution, E. coli ATCC BAA2469; assay type: cell-based, Escherichia coli; settings: Escherichia coli, ATCCBAA2469, MDR; overnight incubation
Method: as §1, §2

[8] = system: MRSA-3 (clinical isolate); test: MIC broth microdilution, MRSA-3; assay type: cell-based, Staphylococcus aureus; settings: Staphylococcus aureus, MRSA; overnight incubation, Mueller-Hinton broth; read-out: MIC MRSA-3 (clinical isolate)
Method: as §1, §2

[9] = system: MRSA-2 (clinical isolate); test: MIC broth microdilution, MRSA-2; assay type: cell-based, Staphylococcus aureus; settings: Staphylococcus aureus, MRSA; overnight incubation, Mueller-Hinton broth; read-out: MIC MRSA-2 (clinical isolate)
Method: as §1, §2

[10] = system: Acinetobacter baumannii ATCC BAA1605 (carbapenem-resistant); test: MIC broth microdilution, A. baumannii ATCC BAA1605; assay type: cell-based; settings: Acinetobacter baumannii, ATCCBAA1605, MDR; overnight incubation
Method: as §1, §2

[11] = system: MRSA-1 (clinical isolate); test: MIC broth microdilution, MRSA-1; assay type: cell-based, Staphylococcus aureus; settings: Staphylococcus aureus, MRSA; overnight incubation, Mueller-Hinton broth; read-out: MIC MRSA-1 (clinical isolate)
Method: as §1, §2

[12] = system: E. coli CDC-AR-0346 (ESBL, colistin resistant); test: MIC broth microdilution, E. coli CDC-AR-0346; assay type: cell-based, Escherichia coli; settings: Escherichia coli; MDR; overnight incubation
Method: as §1, §2

[13] = system: E. coli ATCC25922; test: MIC broth microdilution, E. coli ATCC25922; assay type: cell-based, Escherichia coli; settings: Escherichia coli, ATCC25922; not MDR; overnight incubation
Method: as §1, §2

[14] = system: HELA; test: MTT cell viability, HELA; assay type: cell-based; settings: Homo sapiens, cervical cancer, 48 h of drug treatment, average of three experiments
Text: (§3) Cell culture: In this study five different cancer cell lines were used, human lung carcinoma (A549), human breast adenoma (MCF-7), Cervical carcinoma (Hela), hepatocellular carcinoma (Hep3B), and colorectal adenocarcinoma (HCT-116). These cells were obtained from the European Collection of Cell Cultures (ECACC, UK). Hep3B cells were maintained in Dulbecco's Modified Eagle Medium (DMEM: Sigma-Aldrich), and the four other cell lines were maintained in Roswell Park Memorial Institute medium (RPMI, Sigma-Aldrich, St. Louis, Mo., USA), which was supplemented with 10% fetal bovine serum (FBS, Sigma-Aldrich) and 1% penicillin/streptomycin (Sigma-Aldrich). Cells were incubated all the time at 37° C. in a humidified atmosphere of 5% CO2. Cell viability studies: Cell viability was assessed using the MTT assay as described before. In brief, all cancer cell lines were seeded at a density of 4×10^4/well in 96 well flat-bottom plates. After 24 h from seeding, cells were treated with the synthesized compounds and left for an incubation period of 48 h. Upon reaching the indicated time point, the media was removed and replaced with 200 μL fresh media containing 0.5 mg/mL of MTT tetrazolium dye (Sigma-Aldrich). Cells were then incubated with MTT solution for 2 h at 37° C. The resultant formazan crystals were dissolved in 200 μl/well of DMSO and absorbance was measured at 570 nm using a microplate reader (Thermo Scientific).

[15] = system: MDA-MB-468; test: MTT cell viability, MDA-MB-468; assay type: cell-based; settings: Homo sapiens, breast cancer, 48 h of drug treatment, average of three experiments
Method: (§4) Cell viability studies: Cell viability was assessed using the MTT assay as described before. In brief, all cancer cell lines were seeded at a density of 4×10^4/well in 96 well flat-bottom plates. After 24 h from seeding, cells were treated with the synthesized compounds and left for an incubation period of 48 h. Upon reaching the indicated time point, the media was removed and replaced with 200 μL fresh media containing 0.5 mg/mL of MTT tetrazolium dye (Sigma-Aldrich). Cells were then incubated with MTT solution for 2 h at 37° C. The resultant formazan crystals were dissolved in 200 μl/well of DMSO and absorbance was measured at 570 nm using a microplate reader (Thermo Scientific).

[16] = system: MCF-7; test: MTT cell viability, MCF-7; assay type: cell-based; settings: Homo sapiens, MCF7; breast cancer; 48 h of drug treatment; average of three experiments
Text: as §3

[17] = system: A549; test: MTT cell viability, A549; assay type: cell-based; settings: Homo sapiens, lung cancer, 48 h of drug treatment, average of three experiments
Text: as §3

[18] = system: MDA-MB-231; test: MTT cell viability, MDA-MB-231; assay type: cell-based; settings: Homo sapiens, breast cancer, 48 h of drug treatment, average of three experiments
Method: as §4

[19] = system: HCT-116; test: MTT cell viability, HCT-116; assay type: cell-based; settings: Homo sapiens, colon cancer, 48 h of drug treatment, average of three experiments
Text: as §3

[20] = system: normal epithelial cells (HMEC); test: Cell viability, normal epithelial cells; assay type: cell-based; settings: Homo sapiens, 48 h of drug treatment, average of three experiments
Method: as §4

[21] = system: Hela cells; test: Western blot, autophagy- and iron metabolism-related proteins, Hela; assay type: cell-based, human
Method: Western Blotting (autophagy- and iron metabolism-related proteins): Cells were grown in DMEM supplemented with 10% FBS and 1×PEST (Penicillin and streptomycin antibiotics) at 37° C. in incubator having humidified atmosphere with 5% CO2. The media were removed and cells were washed twice with 1× cold PBS. Cells lysis was performed with RIPA lysis buffer containing (150 mM sodium chloride, 1.0% NP-40, 0.1% SDS, 50 mM Tris pH 8.0, 0.5% sodium deoxycholate supplemented with protease inhibitors cocktail). Cells were kept on icebox during the lysis process. Cold lysis buffer was added to each well directly and then cells were scraped and collected in 1.5 ml Eppendorf tube. Cell lysis was kept on icebox for 20 minutes and then centrifuged at 4° C. for 10 minutes. The supernatant was collected and the pellet was discarded. After, protein quantification, samples were boiled in 5× loading buffer at 95° C. for 5 minutes. After completion of the gel running and transfer process, the membrane was stained with ponceau solution. After that, the membrane was washed with 1×TBST and then blocked in 5% non-fat dry milk for 1 hr at room temperature. The membrane was washed 3 times with 1×TBST and then incubated with indicated primary antibodies at 4° C. overnight. Primary antibodies were removed; the membrane was washed 3 times with 1×TBST and then incubated with secondary antibodies for 2 h at room temperature. Secondary antibodies were diluted in 5% non-fat dry milk in 1× TB ST. After removal of the secondary antibody, the membrane was washed 3 times with 1×TBST. The membrane was incubated in ECL solution and the signal was developed using Gel Doc system from Biorad.

[22] = system: SKBR3; test: MTT cell viability, SKBR3; assay type: cell-based; settings: Homo sapiens, SK-BR-3; breast cancer; 48 h of drug treatment; average of three experiments
Method: as §4

[23] = system: SKOV3; test: MTT cell viability, SKOV3; assay type: cell-based; settings: Homo sapiens, SK-OV-3; 48 h of drug treatment; average of three experiments
Method: as §4

[24] = system: AGS; test: MTT cell viability, AGS; assay type: cell-based; settings: Homo sapiens, stomach cancer, 48 h of drug treatment, average of three experiments
Method: as §4

[25] = system: JIMT1; test: MTT cell viability, JIMT1; assay type: cell-based; settings: Homo sapiens, JIMT-1; breast cancer; 48 h of drug treatment; average of three experiments
Method: as §4

[26] = system: HEP3B; test: MTT cell viability, HEP3B; assay type: cell-based; settings: Homo sapiens, liver cancer, 48 h of drug treatment, average of three experiments
Text: as §3

MIC [1]: 100 mg/L (≈ 171 µM)
MIC [2]: 50 mg/L (≈ 85.4 µM)
MIC [3]: 10 mg/L (≈ 17.1 µM)
MIC [4]: 2 to 100 mg/L (≈ 3.42 to 171 µM)
MIC [5]: 50 mg/L (≈ 85.4 µM)
MIC [6]: > 1000 mg/L
MIC [7]: > 1000 mg/L
MIC [8]: 2 mg/L (≈ 3.42 µM)
MIC [9]: 8 mg/L (≈ 13.7 µM)
MIC [10]: 1.25 mg/L (≈ 2.13 µM)
MIC [11]: 16 mg/L (≈ 27.3 µM)
MIC [12]: > 1000 mg/L
MIC [13]: 2.5 mg/L (≈ 4.27 µM)
SMILES: NCC[C@H](O)C(=O)N[C@@H]1C[C@H](N)[C@@H](O[C@H]2O[C@H](CN)[C@@H](O)[C@H](O)[C@H]2O)[C@H](O)[C@H]1O[C@H]1O[C@H](CO)[C@@H](O)[C@H](N)[C@H]1O [Amikacin, reference compound]

MIC [1]: 3.12 mg/L (≈ 7.31 µM)
MIC [2]: 3.12 mg/L (≈ 7.31 µM)
IC50 [14]: 3.14 ± 0.04 µM
IC50 [15]: 3.06 ± 0.17 µM
IC50 [16]: 3.09 ± 0.04 µM
IC50 [17]: 5.22 ± 0.03 µM
IC50 [18]: 4.22 ± 0.1 µM
IC50 [19]: 2.49 ± 0.02 µM
MIC [5]: 3.12 mg/L (≈ 7.31 µM)
MIC [8]: 3.12 mg/L (≈ 7.31 µM)
MIC [9]: 3.12 mg/L (≈ 7.31 µM)
IC50 [22]: 3.93 ± 0.16 µM
MIC [11]: 3.12 mg/L (≈ 7.31 µM)
IC50 [23]: 6.52 ± 0.2 µM
IC50 [24]: 5.37 ± 0.17 µM
IC50 [26]: 2.32 ± 0.16 µM
SMILES: O=[N+]([O-])c1ccc(N/N=C2\C=C[C@@]3(CC2)CC[C@@H]2NCCc4c2n3c2ccccc42)cc1 [Compound 1d]
IC50 [20]: 42.04 ± 0.08 µM
Expression and metabolism of autophagy marker LC3B1/II [21]: upregulate
Expression of DNA damage marker pH2AX [21]: induce
IC50 [25]: 4 ± 0.1 µM
